Laboratory results taken from ChEMBL document CHEMBL1137920, “Design and synthesis of 1-(4-benzoylphenyl)imidazole derivatives as new potent 20-HETE synthase inhibitors” (Bioorg Med Chem Lett, 2004).

assay: Inhibitory activity against 20-Hydroxy-5,8,11,14-eicosatetraenoic acid synthase from arachidonic acid in rat renal microsome

IC50 [nM] | Structure (SMILES)
2000 | O=C(O)CCCCCCCCCC=C(Br)Br
> 5000 | C#CCCCCCCCCCCCCCCCC(=O)O
2000 | CS(=O)(=O)NC(=O)CCCCCCCCCC=C(Br)Br
7500 | C#CCCCCCCCCCOS(=O)(=O)O

Continued, molecule first:

Structure (SMILES) | IC50 [nM]
O=C(c1ccccc1)c1ccc(-n2ccnc2)cc1 | 310
CCCCc1ccc(/N=C/NO)c(C)c1 | 35.2

assay: Inhibitory activity against 20-Hydroxy-5,8,11,14-eicosatetraenoic acid synthase from arachidonic acid in human renal microsome

Structure (SMILES) | IC50 [nM]
Cc1cc(C(=O)c2ccc(-n3ccnc3)cc2)ccc1OCCCC(=O)O | 13

assay: Inhibitory activity against 20-Hydroxy-5,8,11,14-eicosatetraenoic acid synthase from arachidonic acid in human renal microsome

IC50 [nM] | Structure (SMILES)
4800 | Cc1ccc(OCCCCCCCC(=O)O)c(C(=O)c2ccc(-n3ccnc3)cc2)c1
73 | Cc1cc(C(=O)c2ccc(-n3ccnc3)cc2)ccc1OCCCCCCCCCC(=O)O
6740 | Cc1ccc(OCCCCCCCCCC(=O)O)c(C(=O)c2ccc(-n3ccnc3)cc2)c1
44 | Cc1cc(C(=O)c2ccc(-n3ccnc3)cc2)ccc1OCCCCCCCC(=O)O

Second part, the molecule before the results:

Structure (SMILES) | IC50 [nM]
Cc1ccc(OCCCCCC(=O)O)c(C(=O)c2ccc(-n3ccnc3)cc2)c1 | 3290
Cc1cc(C(=O)c2ccc(-n3ccnc3)cc2)ccc1OCCCCC(=O)O | 12
Cc1cc(C(=O)c2ccc(-n3ccnc3)cc2)ccc1OCCCCCC(=O)O | 7.9
Cc1ccc(OCCCCCCC(=O)O)c(C(=O)c2ccc(-n3ccnc3)cc2)c1 | 2460
Cc1ccc(OCCCCC(=O)O)c(C(=O)c2ccc(-n3ccnc3)cc2)c1 | 8380
Cc1cc(C(=O)c2ccc(-n3ccnc3)cc2)ccc1OCCCCCCC(=O)O | 22
Cc1ccc(OCCCC(=O)O)c(C(=O)c2ccc(-n3ccnc3)cc2)c1 | > 10000
